# Experimental data as given in patent US20230277568A1, “METHOD OF TREATMENT FOR […] PSILOCIN INFUSION” (Eleusis Therapeutics US, Inc., priority 2020, published 2023).
# Entries after “also recorded” stand apart in the source; their conditions may differ.
# Key:
# [1] = tested on: WKY rats; experiment: Forced swim test in rat model of depression; format: in vivo; conditions: FST 21 days after injection
# Procedure: A rat model of depression was used to assess the antidepressant effect of psilocin alone or in combination with lorazepam. WKY rats were divided into 3 groups (n=8 animals per group) and treated with (i) 1 mg/kg of psilocin injected as a bolus dose into the tail vein (PSI); (ii) 1.8 mg/kg of lorazepam injected 30 i.p. minutes prior to a 1 mg/kg tail vein injection of psilocin (P+L); or (iii) saline (SAL; as a control group). The dose of lorazepam was chosen to be a moderate/low non-sedating but anxiolytic dose in rats after consultation with an expert in the field of benzodiazepine's effects in rats.
# After injection treatment, rats were maintained in their home cage for three weeks (21 days) prior to testing by forced swim test (FST) as described in Hibicke et al., ACS Chem. Neurosci. 2020, 11, 6, 864-871.
# Forced Swim Test methodology: During a pre-exposure, rats were placed into a plastic cylindrical tank (114 cm×30.5 cm) that contained 30 cm of water at 28-30° C. The water depth was such that the rats could not support themselves by touching the bottom of the tank with their hind paws, and their tails could not touch the bottom of the tank while keeping their noses above water. After a 15 min swim, the rats were removed, dried with paper towels, and replaced in their home cages. Fresh water was used for each animal. For the testing, a video camera was mounted to the side of the tank, and the rats were exposed to a 5 min swim under the conditions described above and then removed, dried with paper towels, and returned to their home cages. The 5 min swim was recorded for later scoring for immobility, swimming, and climbing. FST scoring was performed by a trained scorer. Immobility was defined as no active attempts to escape while maintaining a floating posture in which the rats make only the movements necessary to keep their heads above water. Swimming was defined as actively attempting escape with motions directed outward against the wall of the cylinder. Climbing was defined as actively attempting escape with motions directed upward against the wall of the cylinder.
# [2] = target: 5-HT2A receptor (Homo sapiens, UniProt P28223); conditions: background statement; cited from earlier work
# [3] = 1.8 mg/kg lorazepam i.p. 30 minutes prior to 1 mg/kg i.v. psilocin
# Sequence of 5-HT2A receptor (P28223 whole entry): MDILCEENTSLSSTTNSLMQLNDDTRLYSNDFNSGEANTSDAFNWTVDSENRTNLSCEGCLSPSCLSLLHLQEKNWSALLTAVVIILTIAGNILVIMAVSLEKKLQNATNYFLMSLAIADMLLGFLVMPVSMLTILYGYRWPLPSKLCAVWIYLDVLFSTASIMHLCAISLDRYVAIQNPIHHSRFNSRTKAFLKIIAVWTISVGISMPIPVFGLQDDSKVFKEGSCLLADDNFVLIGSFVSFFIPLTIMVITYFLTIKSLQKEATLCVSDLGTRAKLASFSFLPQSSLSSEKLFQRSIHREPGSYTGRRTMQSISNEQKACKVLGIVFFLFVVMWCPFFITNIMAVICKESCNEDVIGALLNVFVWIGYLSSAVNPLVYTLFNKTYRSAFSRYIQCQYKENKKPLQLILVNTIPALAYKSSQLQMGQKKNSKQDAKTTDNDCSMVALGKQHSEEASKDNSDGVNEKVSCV
Compound,"effect of lorazepam pretreatment on the effects of psilocin, immobility measure [1, 3]","effect of lorazepam pretreatment on the effects of psilocin, swimming behavior [1, 3]","effect of lorazepam pretreatment on the effects of psilocin, immobility measure ([1]; 1.8 mg/kg lorazepam i.p. 30 minutes prior to 1 mg/kg i.v. psilocin, listed as lorazepam)","antidepressant-like behaviors in forced swim test ([1]; 1 mg/kg psilocin single i.v. bolus (tail vein), 1 mg/kg)",affinity for the 5-HT2A receptor [2]
O=C1Nc2ccc(Cl)cc2C(c2ccccc2Cl)=NC1O (centres unmarked) [Lorazepam],slight but significant effect to blunt the effects of psilocin,no significant effect,"slight, but significant effect",,
"CN(C)CCc1c[nH]c2cccc(O)c12 [psilocin, 4-hydroxy-N,N-dimethyltrypamine]",,,,as efficacious in producing long-lasting antidepressant-like behaviors in this model as a single i.p. administration of psilocybin of the same dose; also recorded: as efficacious in producing long-lasting antidepressant-like behaviors in our model as a single i.p. administration of psilocybin of the same dose,high affinity
